Experimental data reported in patent US20130005811A1, “ANTIMICROBIAL TREATMENT FOR SEEDS AND SPROUTS” (priority 2010, published 2013).
Marks after values point to notes of the source that are not given here.

Test system: S. typhimurium DT 104
Experiment: Inactivation of S. typhimurium DT 104 on alfalfa seeds inoculated with 10^8 CFU/g
Assay type: cell-based, Salmonella typhimurium DT104
Method: Five isolates of Escherichia coli O157:H7, including strain 932 (human isolate), E009 (beef isolate), E0018 (cattle isolate), E0122 (cattle isolate), E0139 (deer jerky isolate); and five isolates of Salmonella typhimurium DT104, including strain H2662 (cattle isolate), 11942A (cattle isolate), 13068A (cattle isolate), 152N17-1 (dairy isolate) and H3279 (human isolate) were used. Nalidixic acid-resistant (50 μg/ml) E. coli O157:H7 were used to facilitate enumeration. Each E. coli O157:H7 and Salmonella strain was grown in tryptic soy broth (TSB, Beckon Dickinson, Sparks, Md.) at 37° C. for 18 hr. Approximately equal cell numbers of each of the five strains were combined and used as a 5-strain mixture with cell numbers being adjusted by spectrophotometric (Spectronic Instruments, Rochester, N.Y.) determination as described in Zhao et al., (2009) J. Food Prot. 72: 928-936, incorporated herein by reference in its entirety. Bacterial cell numbers were confirmed by plating 0.1 ml of serial dilutions (1:10) in 0.1% peptone on tryptic soy agar (TSA, Beckon Dickinson) and Sorbitol MacConkey agar (SMA, Oxoid, Hampshire, UK) for E. coli O157:H7, and TSA and XLD agar (Beckon Dickinson) for Salmonella and incubating all plates at 37° C. for 24 hr, after which colonies were counted.
Levulinic acid (0.5%) and 0.05% sodium dodecyl sulfate (SDS) obtained from Sigma-Aldrich (St. Louis, Mo.) were tested in combination at 21±2° C. for their antimicrobial activity to E. coli O157:H7 and S. typhimurium on alfalfa seeds as a wash treatment. Calcium hypochlorite (Arch Chemicals, Smyrna, Ga.) at 20,000 μg/ml (ppm) was used as the positive control, and deionized water was used as the negative control.
Before each trial, 25 ml of sterile tap water and 25 g of alfalfa seeds were added to a WHIRL-PAK® bag (Nasco, Fort Atkinson, Wis.) and pummeled in a stomacher blender at 150 rpm for 1 min. Duplicate 0.1 ml portions of the contents were plated on SMA, XLD, and TSA plates to detect E. coli O157:H7 and Salmonella, and enumerate aerobic bacteria counts according to the protocols described below. Only E. coli O157:H7-negative and Salmonella-negative alfalfa seeds were used. Dry seeds (50 g) were individually placed in a sterilized glass beaker (1 L) and 5 ml of a mixture of E. coli O157:H7 or S. typhimurium DT 104 (high inocula at 10^8-10^9 CFU/ml and low inocula at 10^3-10^4 CFU/ml) was inoculated on the surface of the seeds in each glass beaker under a laminar flow hood. A sterile plastic spoon was used to mix for 2 min the seeds with bacterial suspension. The glass beakers were held in a laminar flow hood for 1 hr, 4 hr, 24 hr, 48 hr, and 72 hr with intermittent mixing by plastic spoon before use for chemical treatment.
Inactivation of E. coli O157:H7 and Salmonella on Alfalfa Seeds: Inoculated, dried alfalfa seeds (50 g samples) were placed in a 1000 ml glass beaker containing 200 ml of treatment solution and agitated by a magnetic stir bar at 150 ppm at 21° C. for 0, 1, 2, 5, 10, 20, 30, and 60 min. Following treatment, 25 g of seeds was placed in a stomacher bag containing 25 ml 0.1M phosphate buffer, pH 7.2 (PBS) for levulinic acid plus SDS-treated seeds or neutralizing buffer (50×) for calcium hypochlorite-treated seeds and pummeled for 1 min. at 150 rpm in a stomacher blender (Seward, Ltd., Worthing, England). The suspension was serially (1:10) diluted in 0.1% peptone water and 0.1 ml of each dilution was surface-plated in duplicate onto TSA and Sorbitol MacConkey agar containing 50 μg nalidixic acid/ml (TSA-NA and SMA-NA) for E. coli O157:H7, and on TSA and XLD containing ampicillin (32 μg/ml), tetracycline (16 μg/ml) and streptomycin (64 μg/ml) (TSA+ and XLD+) for S. typhimurium DT 104. All plates were incubated at 37° C. for 48 hr.

Compound: [Ca+2].[O-]Cl.[O-]Cl [20,000 ppm, Ca(OCl)2, pH 11.4, Calcium hypochlorite]
- S. typhimurium DT 104 counts in seeds (dried for 4 hr, treated for 0 min (actual time 0 delayed by 20 to 30 seconds)): +^b (below the minimum detection level by direct plating (<0.7 log CFU/ml), but positive by enrichment culture.)
- S. typhimurium DT 104 counts in seeds (dried for 4 hr, treated for 1 min): −^c
- S. typhimurium DT 104 counts in seeds (dried for 4 hr, treated for 2 min): −
- S. typhimurium DT 104 counts in seeds (dried for 4 hr, treated for 5 min): −
- S. typhimurium DT 104 counts in seeds (dried for 4 hr, treated for 10 min): −
- S. typhimurium DT 104 counts in seeds (dried for 4 hr, treated for 20 min): −
- S. typhimurium DT 104 counts in seeds (dried for 4 hr, treated for 30 min): −
- S. typhimurium DT 104 counts in seeds (dried for 4 hr, treated for 60 min): −
- S. typhimurium DT 104 counts in seeds (dried for 24 hr, treated for 0 min): + (below the minimum detection level by direct plating (<0.7 log CFU/ml), but positive by enrichment culture.)
- S. typhimurium DT 104 counts in seeds (dried for 24 hr, treated for 1 min): + (below the minimum detection level by direct plating (<0.7 log CFU/ml), but positive by enrichment culture.)
- S. typhimurium DT 104 counts in seeds (dried for 24 hr, treated for 2 min): −
- S. typhimurium DT 104 counts in seeds (dried for 24 hr, treated for 5 min): −
- S. typhimurium DT 104 counts in seeds (dried for 24 hr, treated for 10 min): −
- S. typhimurium DT 104 counts in seeds (dried for 24 hr, treated for 20 min): −
- S. typhimurium DT 104 counts in seeds (dried for 24 hr, treated for 30 min): −
- S. typhimurium DT 104 counts in seeds (dried for 24 hr, treated for 60 min): −
- S. typhimurium DT 104 counts in seeds (dried for 48 hr, treated for 0 min): + (below the minimum detection level by direct plating (<0.7 log CFU/ml), but positive by enrichment culture.)
- S. typhimurium DT 104 counts in seeds (dried for 48 hr, treated for 1 min): + (below the minimum detection level by direct plating (<0.7 log CFU/ml), but positive by enrichment culture.)
- S. typhimurium DT 104 counts in seeds (dried for 48 hr, treated for 2 min): −
- S. typhimurium DT 104 counts in seeds (dried for 48 hr, treated for 5 min): −
- S. typhimurium DT 104 counts in seeds (dried for 48 hr, treated for 10 min): + (below the minimum detection level by direct plating (<0.7 log CFU/ml), but positive by enrichment culture.)
- S. typhimurium DT 104 counts in seeds (dried for 48 hr, treated for 20 min): −
- S. typhimurium DT 104 counts in seeds (dried for 48 hr, treated for 30 min): −
- S. typhimurium DT 104 counts in seeds (dried for 48 hr, treated for 60 min): −
- S. typhimurium DT 104 counts in seeds (dried for 72 hr, treated for 0 min): −
- S. typhimurium DT 104 counts in seeds (dried for 72 hr, treated for 1 min): −
- S. typhimurium DT 104 counts in seeds (dried for 72 hr, treated for 2 min): −
- S. typhimurium DT 104 counts in seeds (dried for 72 hr, treated for 5 min): −
- S. typhimurium DT 104 counts in seeds (dried for 72 hr, treated for 10 min): −
- S. typhimurium DT 104 counts in seeds (dried for 72 hr, treated for 20 min): + (below the minimum detection level by direct plating (<0.7 log CFU/ml), but positive by enrichment culture.)
- S. typhimurium DT 104 counts in seeds (dried for 72 hr, treated for 30 min): + (below the minimum detection level by direct plating (<0.7 log CFU/ml), but positive by enrichment culture.)
- S. typhimurium DT 104 counts in seeds (dried for 72 hr, treated for 60 min): −
- Salmonella detection after treatment (seeds dried for 4 hr, after 5 min of treatment): no detectable Salmonella
- Salmonella detection after treatment (seeds dried for 24 hr, 48 hr, or 72 hr, treated for 5 min): levels only detectable by selective enrichment culture
